Test results taken from the supplement of paper PMC10307832.

Tests used:
Experiment in all cases: relative viability (nuclei count vs DMSO), 5 days (fraction); higher = more cells survive
ALW-II-49-7 + Crizotinib = compound: Cc1ccc(C(=O)Nc2cccc(C(F)(F)F)c2)cc1Nc1cncc(C(N)=O)c1 [ALW-II-49-7] + C[C@@H](Oc1cc(-c2cnn(C3CCNCC3)c2)cnc1N)c1c(Cl)ccc(F)c1Cl [Crizotinib] (partner 1 µM)
Outline: (§1)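 Nuclei were stained with Hoechst during a one-step fixation (final 0.05% Triton X-100, 1% formaldehyde, 1 ug/ml Hoechst) carried out 5 days after dosing, then counted on 4× images. The cells, lung cancer lines in 1536-well plates, had been dosed by pin tool the day after seeding with one drug alone or a fixed anchor-drug dose plus five library-drug doses (not always all listed) in √10 steps. Relative viability is the nuclei count in treated wells divided by that in vehicle wells, and each value is the median of duplicate plates.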

Dasatinib + Luminespib = compound: Cc1nc(Nc2ncc(C(=O)Nc3c(C)cccc3Cl)s2)cc(N2CCN(CCO)CC2)n1 [Dasatinib] + CCNC(=O)c1noc(-c2cc(C(C)C)c(O)cc2O)c1-c1ccc(CN2CCOCC2)cc1 [Luminespib] (partner 0.01 µM)
Outline: as §1

Dasatinib + Alpelisib = compound: Cc1nc(Nc2ncc(C(=O)Nc3c(C)cccc3Cl)s2)cc(N2CCN(CCO)CC2)n1 [Dasatinib] + Cc1nc(NC(=O)N2CCC[C@H]2C(N)=O)sc1-c1ccnc(C(C)(C)C(F)(F)F)c1 [Alpelisib] (partner 2 µM)
Outline: as §1

Dasatinib + Phenformin = compound: Cc1nc(Nc2ncc(C(=O)Nc3c(C)cccc3Cl)s2)cc(N2CCN(CCO)CC2)n1 [Dasatinib] + N=C(N)NC(=N)NCCc1ccccc1 [Phenformin] (partner 250 µM)
Outline: as §1

| Cell Line | relative viability (ALW-II-49-7 + Crizotinib; first compound 0.08 µM) | relative viability (ALW-II-49-7 + Crizotinib; first compound 0.253 µM) | relative viability (ALW-II-49-7 + Crizotinib; first compound 0.8 µM) | relative viability (ALW-II-49-7 + Crizotinib; first compound 2.53 µM) | relative viability (ALW-II-49-7 + Crizotinib; first compound 8 µM) | relative viability (Dasatinib + Luminespib; first compound 0.005 µM) | relative viability (Dasatinib + Luminespib; first compound 0.01581 µM) | relative viability (Dasatinib + Luminespib; first compound 0.05 µM) | relative viability (Dasatinib + Luminespib; first compound 0.1581 µM) | relative viability (Dasatinib + Luminespib; first compound 0.5 µM) | relative viability (Dasatinib + Alpelisib; first compound 0.005 µM) | relative viability (Dasatinib + Alpelisib; first compound 0.01581 µM) | relative viability (Dasatinib + Alpelisib; first compound 0.05 µM) | relative viability (Dasatinib + Alpelisib; first compound 0.1581 µM) | relative viability (Dasatinib + Alpelisib; first compound 0.5 µM) | relative viability (Dasatinib + Phenformin; first compound 0.005 µM) | relative viability (Dasatinib + Phenformin; first compound 0.01581 µM) | relative viability (Dasatinib + Phenformin; first compound 0.05 µM) | relative viability (Dasatinib + Phenformin; first compound 0.1581 µM) | relative viability (Dasatinib + Phenformin; first compound 0.5 µM) |
| --- | --- | --- | --- | --- | --- | --- | --- | --- | --- | --- | --- | --- | --- | --- | --- | --- | --- | --- | --- | --- |
| HARA | 0.914 | 0.982 | 1.01 | 1.25 | 1.23 | 0.774 | 0.552 | 0.413 | 0.207 | 0.133 | 0.778 | 0.723 | 0.57 | 0.27 | 0.193 | 0.422 | 0.39 | 0.472 | 0.273 | 0.0965 |
| HCC-15 | 0.805 | 0.86 | 0.786 | 0.831 | 0.886 | 0.381 | 0.316 | 0.248 | 0.247 | 0.108 | 0.875 | 0.783 | 0.779 | 0.53 | 0.528 | 0.482 | 0.475 | 0.462 | 0.287 | 0.269 |
| HCC-44 | 0.902 | 0.773 | 0.729 | 0.823 | 0.782 | 1.15 | 1.01 | 0.733 | 0.604 | 0.453 | 0.789 | 0.705 | 0.676 | 0.271 | 0.183 | 0.202 | 0.283 | 0.179 | 0.139 | 0.113 |
| HCC-78 | 0.335 | 0.321 | 0.32 | 0.297 | 0.371 | – | – | – | – | – | 0.259 | 0.261 | 0.304 | 0.257 | 0.176 | 0.436 | 0.581 | 0.581 | 0.465 | 0.245 |
| HCC-366 | 0.777 | 0.592 | 0.382 | 0.682 | 0.609 | – | – | – | – | – | 0.096 | 0.174 | 0.141 | 0.151 | 0.103 | 0.606 | 0.571 | 0.484 | 0.426 | 0.336 |
| HCC-827 | 0.898 | 0.913 | 0.886 | 0.941 | 0.906 | 0.672 | 0.409 | 0.335 | 0.127 | 0.123 | 1.01 | 0.737 | 0.757 | 0.374 | 0.123 | 0.411 | 0.362 | 0.328 | 0.293 | 0.104 |
| HOP-62 | 0.855 | 1.05 | 1.02 | 0.563 | 0.817 | 0.853 | 0.858 | 0.92 | 0.648 | 0.485 | 1.27 | 1.02 | 0.838 | 0.679 | 0.272 | 0.687 | 0.608 | 0.704 | 0.569 | 0.281 |
| IA-LM | 0.825 | 0.754 | 0.745 | 0.346 | 0.18 | – | – | – | – | – | 0.969 | 0.71 | 0.882 | 0.84 | 0.62 | – | – | – | – | – |
| LC-2-ad | 0.354 | 0.461 | 0.476 | 0.378 | 0.393 | 1.1 | 1.11 | 0.86 | 0.774 | 0.376 | 0.854 | 0.703 | 0.699 | 0.276 | 0.169 | 0.636 | 0.623 | 0.411 | 0.306 | 0.265 |
| NCI-H522 | – | – | – | – | – | 1.16 | 0.913 | 1.08 | 0.775 | 0.923 | – | – | – | – | – | 0.634 | 0.625 | 0.587 | 0.599 | 0.5 |
| NCI-H1299 | 0.972 | 0.954 | 0.963 | 0.861 | 0.736 | – | – | – | – | – | 1.07 | 1.13 | 1.08 | 0.924 | 0.288 | – | – | – | – | – |
| NCI-H1395 | – | – | – | – | – | 0.684 | 0.627 | 0.663 | 0.443 | 0.363 | 0.896 | 0.926 | 0.947 | 0.544 | 0.519 | 0.398 | 0.435 | 0.369 | 0.305 | 0.304 |
| NCI-H1623 | – | – | – | – | – | 0.414 | 0.401 | 0.49 | 0.412 | 0.319 | – | – | – | – | – | 0.568 | 0.564 | 0.526 | 0.413 | 0.349 |
| NCI-H1650 | 0.946 | 0.859 | 0.931 | 1.01 | 1.14 | 0.228 | 0.199 | 0.236 | 0.177 | 0.187 | – | – | – | – | – | 0.401 | 0.302 | 0.319 | 0.217 | 0.178 |
| NCI-H1703 | 0.859 | 0.713 | 0.554 | 0.309 | 0.211 | – | – | – | – | – | 0.229 | 0.179 | 0.184 | 0.155 | 0.157 | – | – | – | – | – |
| NCI-H1793 | – | – | – | – | – | 0.164 | 0.14 | 0.148 | 0.128 | 0.104 | 0.554 | 0.45 | 0.545 | 0.512 | 0.443 | 0.319 | 0.314 | 0.313 | 0.264 | 0.2 |
| NCI-H2342 | – | – | – | – | – | 0.769 | 0.548 | 0.439 | 0.437 | 0.281 | – | – | – | – | – | 0.626 | 0.482 | 0.556 | 0.356 | 0.304 |
| SW 900 | – | – | – | – | – | 0.141 | 0.154 | 0.159 | 0.111 | 0.103 | – | – | – | – | – | 0.489 | 0.568 | 0.53 | 0.466 | 0.294 |
